# Publication PMC9512014 (Journal of Medicinal Chemistry, 2022)
# What was measured:
# class I HDAC = conditions: read-out: HDAC cellular IC50 class I; Jurkat E6.1, treated for 24 h; substrate Boc-Lys(Ac)AMC
# HDAC4 [1] = target: T1, HDAC4 (Homo sapiens, UniProt P56524); assay: HDAC4 degradation by western blot in Jurkat E6-1 cells; assay type: cell-based; conditions: Jurkat E6-1, 24 h; for hook effect: immunoblot, at 10 μM
# Target sequence in this assay (P56524 whole entry): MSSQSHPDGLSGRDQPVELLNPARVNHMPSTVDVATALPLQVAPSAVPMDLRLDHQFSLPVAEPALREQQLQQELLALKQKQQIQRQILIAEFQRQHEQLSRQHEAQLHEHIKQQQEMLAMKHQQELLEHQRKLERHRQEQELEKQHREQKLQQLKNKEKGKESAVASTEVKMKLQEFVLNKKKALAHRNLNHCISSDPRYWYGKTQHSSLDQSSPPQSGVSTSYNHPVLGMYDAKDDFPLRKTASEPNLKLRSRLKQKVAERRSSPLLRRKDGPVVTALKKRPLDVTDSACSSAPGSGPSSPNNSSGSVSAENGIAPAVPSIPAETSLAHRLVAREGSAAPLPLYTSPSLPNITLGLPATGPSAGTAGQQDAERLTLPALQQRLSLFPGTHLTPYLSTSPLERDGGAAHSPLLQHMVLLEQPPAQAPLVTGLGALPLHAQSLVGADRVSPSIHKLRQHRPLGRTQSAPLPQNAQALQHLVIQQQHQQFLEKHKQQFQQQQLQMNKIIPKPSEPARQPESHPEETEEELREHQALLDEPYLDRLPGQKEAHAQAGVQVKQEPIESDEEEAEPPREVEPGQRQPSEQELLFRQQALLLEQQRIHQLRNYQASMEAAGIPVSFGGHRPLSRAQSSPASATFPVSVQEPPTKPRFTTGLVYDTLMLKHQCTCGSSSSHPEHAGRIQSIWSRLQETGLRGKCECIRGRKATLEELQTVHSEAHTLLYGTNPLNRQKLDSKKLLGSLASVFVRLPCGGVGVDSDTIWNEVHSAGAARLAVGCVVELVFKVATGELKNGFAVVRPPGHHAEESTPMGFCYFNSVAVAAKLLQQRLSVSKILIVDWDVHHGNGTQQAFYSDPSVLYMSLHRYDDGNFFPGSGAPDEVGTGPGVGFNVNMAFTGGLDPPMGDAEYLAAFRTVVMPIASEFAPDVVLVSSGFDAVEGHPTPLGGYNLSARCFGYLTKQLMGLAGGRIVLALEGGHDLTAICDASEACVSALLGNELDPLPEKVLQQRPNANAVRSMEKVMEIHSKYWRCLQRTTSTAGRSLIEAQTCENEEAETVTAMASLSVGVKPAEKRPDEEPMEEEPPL
# HDAC4 [2] = target: T1, HDAC4; assay type: cell-based; conditions: Jurkat E6-1, 6 h; compound 7 at 1 μM, compound 11 at 100 nM
# Target sequence in this assay (P56524 whole entry): as above
# HDAC9 = HDAC9 (Homo sapiens, UniProt Q9UKV0); assay: Multiplexed selectivity western blot in Jurkat cells, HDAC9; assay type: cell-based; conditions: Jurkat E6-1, 24 h, concentration response
# HDAC1 = HDAC1 (Homo sapiens, UniProt Q13547); assay: Multiplexed selectivity western blot in Jurkat cells, HDAC1; assay type: cell-based; conditions: Jurkat E6-1, 24 h, concentration response
# HDAC5 = HDAC5 (Homo sapiens, UniProt Q9UQL6); assay: Multiplexed selectivity western blot in Jurkat cells, HDAC5; assay type: cell-based; conditions: Jurkat E6-1, 24 h, concentration response
# HDAC7 = target: T2, HDAC7 (Homo sapiens, UniProt Q8WUI4); assay: Multiplexed selectivity western blot in Jurkat cells, HDAC7; assay type: cell-based; conditions: Jurkat E6-1, 24 h, concentration response
# T2 sequence (Q8WUI4 1-952): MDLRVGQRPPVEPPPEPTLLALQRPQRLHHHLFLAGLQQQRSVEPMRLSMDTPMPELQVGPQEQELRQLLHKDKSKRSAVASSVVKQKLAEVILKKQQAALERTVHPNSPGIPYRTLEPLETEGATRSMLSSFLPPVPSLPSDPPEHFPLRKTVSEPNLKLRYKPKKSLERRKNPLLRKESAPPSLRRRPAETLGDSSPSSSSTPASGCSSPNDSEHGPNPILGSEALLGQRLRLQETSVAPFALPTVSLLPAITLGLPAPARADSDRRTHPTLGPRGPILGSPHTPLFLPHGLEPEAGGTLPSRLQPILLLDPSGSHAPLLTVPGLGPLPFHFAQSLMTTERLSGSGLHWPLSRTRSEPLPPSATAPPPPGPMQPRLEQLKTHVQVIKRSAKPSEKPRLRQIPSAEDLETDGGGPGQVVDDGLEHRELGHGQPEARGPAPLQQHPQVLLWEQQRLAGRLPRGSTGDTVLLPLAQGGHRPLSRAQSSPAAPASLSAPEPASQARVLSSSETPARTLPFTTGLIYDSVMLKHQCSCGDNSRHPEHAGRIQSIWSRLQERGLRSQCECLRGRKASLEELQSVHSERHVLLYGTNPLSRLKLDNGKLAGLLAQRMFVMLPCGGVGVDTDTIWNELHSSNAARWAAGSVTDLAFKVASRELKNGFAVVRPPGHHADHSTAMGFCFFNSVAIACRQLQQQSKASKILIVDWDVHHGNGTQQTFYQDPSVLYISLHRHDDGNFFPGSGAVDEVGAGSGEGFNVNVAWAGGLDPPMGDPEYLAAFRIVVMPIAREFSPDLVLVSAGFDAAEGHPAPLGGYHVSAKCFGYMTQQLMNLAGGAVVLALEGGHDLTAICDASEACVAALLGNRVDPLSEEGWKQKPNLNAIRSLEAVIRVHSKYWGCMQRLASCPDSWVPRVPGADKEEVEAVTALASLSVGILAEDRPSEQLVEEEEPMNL
# HDAC4 [3] = target: T1, HDAC4; assay: Recombinant HDAC4 enzymatic inhibition assay; conditions: HDAC enzymatic activity assays
# Target sequence in this assay (P56524 655-1084 limits assumed): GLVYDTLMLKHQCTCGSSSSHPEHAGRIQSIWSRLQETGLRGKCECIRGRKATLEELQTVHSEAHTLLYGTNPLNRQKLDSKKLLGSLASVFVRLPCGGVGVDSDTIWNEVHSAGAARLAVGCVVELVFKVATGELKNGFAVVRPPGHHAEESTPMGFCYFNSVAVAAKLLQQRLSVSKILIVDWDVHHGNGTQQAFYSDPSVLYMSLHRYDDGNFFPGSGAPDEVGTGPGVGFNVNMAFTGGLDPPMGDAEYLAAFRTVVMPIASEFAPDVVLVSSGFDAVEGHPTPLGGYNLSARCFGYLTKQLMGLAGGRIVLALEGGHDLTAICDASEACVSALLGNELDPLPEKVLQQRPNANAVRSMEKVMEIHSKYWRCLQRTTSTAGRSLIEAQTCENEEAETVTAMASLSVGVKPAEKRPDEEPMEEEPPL
# HDAC3 = HDAC3 (Homo sapiens, UniProt O15379); assay: Multiplexed selectivity western blot in Jurkat cells, HDAC3; assay type: cell-based; conditions: Jurkat E6-1, 24 h, concentration response up to 10 μM
# aggregate load = conditions: R6/2 mice, chronic administration, cortex and brain stem; cited from earlier work
# HDAC4 [4] = target: HDAC4 (Mus musculus, UniProt Q6NZM9); conditions: R6/2 mice, chronic administration; cited from earlier work
# Sequence of HDAC3 (O15379 whole entry): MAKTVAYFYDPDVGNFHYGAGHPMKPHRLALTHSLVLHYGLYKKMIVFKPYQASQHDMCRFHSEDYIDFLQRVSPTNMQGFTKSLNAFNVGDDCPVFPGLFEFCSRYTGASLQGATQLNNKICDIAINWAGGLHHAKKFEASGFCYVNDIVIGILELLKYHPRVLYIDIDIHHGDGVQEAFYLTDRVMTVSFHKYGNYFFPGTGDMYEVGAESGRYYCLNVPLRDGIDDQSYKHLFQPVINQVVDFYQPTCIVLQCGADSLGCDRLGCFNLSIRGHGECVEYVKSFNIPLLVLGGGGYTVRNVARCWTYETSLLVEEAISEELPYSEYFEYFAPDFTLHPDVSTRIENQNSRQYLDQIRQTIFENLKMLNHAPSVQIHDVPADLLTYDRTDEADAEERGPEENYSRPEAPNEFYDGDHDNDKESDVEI
# Sequence of HDAC1 (Q13547 whole entry): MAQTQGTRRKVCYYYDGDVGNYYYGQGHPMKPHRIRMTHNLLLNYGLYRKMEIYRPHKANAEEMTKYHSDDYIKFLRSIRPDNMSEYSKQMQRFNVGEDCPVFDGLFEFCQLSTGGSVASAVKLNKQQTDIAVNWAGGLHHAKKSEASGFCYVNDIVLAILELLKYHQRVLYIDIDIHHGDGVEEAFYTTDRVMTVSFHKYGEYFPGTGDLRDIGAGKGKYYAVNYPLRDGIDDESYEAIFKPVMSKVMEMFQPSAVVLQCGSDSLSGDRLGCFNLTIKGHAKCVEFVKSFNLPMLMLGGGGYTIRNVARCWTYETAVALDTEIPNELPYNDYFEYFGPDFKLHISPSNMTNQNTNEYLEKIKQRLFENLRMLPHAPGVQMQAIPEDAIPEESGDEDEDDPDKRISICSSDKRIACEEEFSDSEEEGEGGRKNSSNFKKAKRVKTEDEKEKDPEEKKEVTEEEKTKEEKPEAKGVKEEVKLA
# Sequence of HDAC9 (Q9UKV0 whole entry): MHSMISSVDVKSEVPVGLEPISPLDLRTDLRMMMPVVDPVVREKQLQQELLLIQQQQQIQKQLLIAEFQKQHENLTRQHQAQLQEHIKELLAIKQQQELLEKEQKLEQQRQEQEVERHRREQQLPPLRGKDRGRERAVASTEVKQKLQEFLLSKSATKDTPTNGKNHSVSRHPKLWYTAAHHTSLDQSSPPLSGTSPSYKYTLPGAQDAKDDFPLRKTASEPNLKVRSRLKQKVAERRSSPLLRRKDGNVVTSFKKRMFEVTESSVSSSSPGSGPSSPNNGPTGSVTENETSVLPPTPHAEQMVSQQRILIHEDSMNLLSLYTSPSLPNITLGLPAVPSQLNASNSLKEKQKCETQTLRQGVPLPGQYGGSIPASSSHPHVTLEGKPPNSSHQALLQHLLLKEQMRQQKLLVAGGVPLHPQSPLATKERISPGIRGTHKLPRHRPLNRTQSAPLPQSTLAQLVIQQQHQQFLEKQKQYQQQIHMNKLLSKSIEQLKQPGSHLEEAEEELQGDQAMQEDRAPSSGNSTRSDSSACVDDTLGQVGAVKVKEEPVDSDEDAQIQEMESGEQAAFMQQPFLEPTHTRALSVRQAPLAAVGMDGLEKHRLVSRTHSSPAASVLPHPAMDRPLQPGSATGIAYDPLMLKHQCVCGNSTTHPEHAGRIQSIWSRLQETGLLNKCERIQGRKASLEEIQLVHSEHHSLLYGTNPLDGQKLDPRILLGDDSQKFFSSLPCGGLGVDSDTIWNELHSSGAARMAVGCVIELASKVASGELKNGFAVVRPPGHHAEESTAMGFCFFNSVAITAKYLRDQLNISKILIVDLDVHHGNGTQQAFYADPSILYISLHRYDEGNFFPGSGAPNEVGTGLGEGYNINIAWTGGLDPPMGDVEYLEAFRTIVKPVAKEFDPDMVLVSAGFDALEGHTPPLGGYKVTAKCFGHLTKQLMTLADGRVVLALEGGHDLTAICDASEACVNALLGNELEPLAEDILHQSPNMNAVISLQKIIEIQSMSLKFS
# Sequence of HDAC5 (Q9UQL6 whole entry): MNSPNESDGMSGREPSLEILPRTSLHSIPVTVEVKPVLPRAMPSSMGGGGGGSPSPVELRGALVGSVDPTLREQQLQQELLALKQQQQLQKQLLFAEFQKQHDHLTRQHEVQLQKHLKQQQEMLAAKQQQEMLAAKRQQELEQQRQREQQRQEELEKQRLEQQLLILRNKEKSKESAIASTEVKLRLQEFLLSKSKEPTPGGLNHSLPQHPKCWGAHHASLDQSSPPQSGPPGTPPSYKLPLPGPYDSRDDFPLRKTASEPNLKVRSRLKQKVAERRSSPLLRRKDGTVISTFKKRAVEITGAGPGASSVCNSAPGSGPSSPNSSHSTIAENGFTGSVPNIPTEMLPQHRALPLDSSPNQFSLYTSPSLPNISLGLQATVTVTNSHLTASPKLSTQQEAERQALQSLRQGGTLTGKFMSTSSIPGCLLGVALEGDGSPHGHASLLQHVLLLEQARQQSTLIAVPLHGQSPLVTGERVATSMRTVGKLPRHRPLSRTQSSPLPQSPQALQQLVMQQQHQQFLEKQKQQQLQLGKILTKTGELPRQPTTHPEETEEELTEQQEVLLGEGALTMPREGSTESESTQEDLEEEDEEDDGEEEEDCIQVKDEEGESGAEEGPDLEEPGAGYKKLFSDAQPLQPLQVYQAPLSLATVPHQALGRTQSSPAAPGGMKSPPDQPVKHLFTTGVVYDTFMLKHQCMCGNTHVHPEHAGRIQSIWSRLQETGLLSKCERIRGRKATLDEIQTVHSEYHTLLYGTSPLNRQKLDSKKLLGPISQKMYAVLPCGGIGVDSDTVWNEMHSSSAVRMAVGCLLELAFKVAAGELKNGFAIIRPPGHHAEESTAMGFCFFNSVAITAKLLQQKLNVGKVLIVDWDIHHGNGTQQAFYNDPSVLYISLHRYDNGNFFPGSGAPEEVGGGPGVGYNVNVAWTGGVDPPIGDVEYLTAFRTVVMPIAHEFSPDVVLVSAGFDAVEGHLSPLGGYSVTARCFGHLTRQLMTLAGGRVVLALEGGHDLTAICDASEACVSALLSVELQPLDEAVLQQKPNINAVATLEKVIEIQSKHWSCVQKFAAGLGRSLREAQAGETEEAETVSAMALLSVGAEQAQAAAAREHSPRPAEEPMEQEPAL
SMILES,IC50 (class I HDAC) [µM],HDAC4 degradation at 10 μM by immunoblot (HDAC4 [1]),HDAC4 degradation in the presence of 1 μM proteasome inhibitors MG132 or carfilzomib (HDAC4 [2]),degradation of HDAC9 by western blot (HDAC9),degradation of HDAC1 by western blot (HDAC1),degradation of HDAC5 by western blot (HDAC5),degradation of HDAC7 by western blot (HDAC7),"higher inhibition of HDAC5, HDAC7, and HDAC9 compared to HDAC4 (HDAC4 [3])",degradation of HDAC3 by western blot (HDAC3),hook effect (HDAC4 [1]),aggregate load in the same brain regions (aggregate load),level of HDAC4 protein in the cortex and brain stem (HDAC4 [4])
"Cc1ncsc1-c1ccc(CNC(=O)[C@@H]2C[C@H](O)CN2C(=O)[C@@H](NC(=O)COCCOCCOCCOCCOCC(F)(F)c2cnc(-c3ccc(C(C(=O)NO)c4ccccc4F)cc3)nc2)C(C)(C)C)cc1 (stereo partly drawn) [Compound 8, (2S,4S)-1-((2S)-2-(tert-Butyl)-20,20-difluoro-20-(2-(4-(1-(2-fluorophenyl)-2-(hydroxyamino)-2-oxoethyl)phenyl)pyrimidin-5-yl)-4-oxo-6,9,12,15,18-pentaoxa-3-azaicosanoyl)-4-hydroxy-N-(4-(4-methylthiazol-5-yl)benzyl)pyrrolidine-2-carboxamide]",> 5,did not induce HDAC4 degradation,–,–,–,–,–,–,–,–,–,–
"Cc1ncsc1-c1ccc(CNC(=O)[C@@H]2C[C@@H](O)CN2C(=O)[C@@H](NC(=O)COCCOCCOCCOCCOCC(F)(F)c2cnc(-c3ccc(C(C(=O)NO)c4ccccc4F)cc3)nc2)C(C)(C)C)cc1 (stereo partly drawn) [Compound 7, (2S,4R)-1-((2S)-2-(tert-Butyl)-20,20-difluoro-20-(2-(4-(1-(2-fluorophenyl)-2-(hydroxyamino)-2-oxoethyl)phenyl)pyrimidin-5-yl)-4-oxo-6,9,12,15,18-pentaoxa-3-azaicosan-1-oyl)-4-hydroxy-N-(4-(4-methylthiazol-5-yl)benzyl)pyrrolidine-2-carboxamide]",> 5,–,HDAC4 degradation was prevented,neither compound demonstrated degradation,neither compound demonstrated degradation,neither compound demonstrated degradation,neither compound demonstrated degradation,3- to 4 fold,No concentration-dependent reduction in immunoreactivity,hook effect was observed,–,–
"CCCN(CCCCOCCOCCOCCOCCOCC(=O)N[C@H](C(=O)N1C[C@H](O)C[C@H]1C(=O)NCc1ccc(-c2scnc2C)cc1)C(C)(C)C)C[C@@H](C)NC(=O)c1ccc(-c2noc(C(F)(F)F)n2)cc1 [Compound 11, (2S,4R)-1-((3R,26S)-26-(tert-Butyl)-3-methyl-1,24-dioxo-5-propyl-1-(4-(5-trifluoromethyl-1,2,4-oxadiazol-3-yl)phenyl)-10,13,16,19,22-pentaoxa-2,5,25-triazaheptacosan-27-oyl)-4-hydroxy-N-(4-(4-methylthiazol-5-yl)benzyl)pyrrolidine-2-carboxamide]",> 5,–,same effect was observed,neither compound demonstrated degradation,neither compound demonstrated degradation,neither compound demonstrated degradation,neither compound demonstrated degradation,–,showed HDAC3 degradation at the highest dose of 10 μM,hook effect was not observed,–,–
"O=C(CCCCCCC(=O)Nc1ccccc1)NO [SAHA, suberoylanilide hydroxamic acid]",–,–,–,–,–,–,–,–,–,–,decrease in aggregate load,reduction in the level of HDAC4 protein
"CCCN(CCCCOCCOCCOCCOCCOCC(=O)N[C@@H](C(=O)N1C[C@@H](O)C[C@@H]1C(=O)NCc1ccc(-c2scnc2C)cc1)C(C)(C)C)C[C@@H](C)NC(=O)c1ccc(-c2noc(C(F)(F)F)n2)cc1 [Compound 12, (2R,4S)-1-((3R,26R)-26-(tert-Butyl)-3-methyl-1,24-dioxo-5-propyl-1-(4-(5-trifluoromethyl-1,2,4-oxadiazol-3-yl)phenyl)-10,13,16,19,22-pentaoxa-2,5,25-triazaheptacosan-27-oyl)-4-hydroxy-N-(4-(4-methylthiazol-5-yl)benzyl)pyrrolidine-2-carboxamide]",> 5,did not induce HDAC4 degradation,–,–,–,–,–,–,–,–,–,–
